From patent publication EP4741392A1, “1H-PYRAZOLO[4,3-C]PYRIDINE COMPOUND, AND COMPOSITION THEREOF AND USE THEREOF” (Shenzhen TargetRx Co., Ltd., priority 2023, dated 2025)

Experiments:
Format in all cases: cell-based
Ramos cells with BTK WT = experiment: Phosphor-BTK(Y223) assay, suspended cells; conditions: Homo sapiens, phosphorylated BTK Y223, Ramos cells with BTK WT
In short: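 Ramos BTK WT cells (2.5 k/well) were treated with compound dilutions for 2 h at 37 °C, then 5 mM Na3VO4 for 3 h. Lysates were read by HTRF p-BTK(Y223) cryptate/d2 antibodies overnight at RT (665/620 ratio). IC50 came from a four-parameter fit of % inhibition versus blank and positive-control wells.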

NIH/3T3 BTK C481S cells = experiment: Phosphor-BTK(Y223) assay, adherent cells; conditions: Mus musculus, NIH3T3, phosphorylated BTK Y223, NIH/3T3 BTK C481S cells; read-out: NIH/3T3 BTK-C481S pBTK
In short: (§1)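 NIH/3T3 cells expressing WT or C481S BTK were pretreated with compound for 0.5 h at 37 °C, then stimulated with 1 mM Na3VO4 (final) for 2 h. Lysates were assayed by HTRF for p-BTK Y223 using the 665/620 nm ratio. IC50 was obtained by nonlinear fit of % inhibition versus 0.5% DMSO control.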

NIH/3T3 BTK WT cells = experiment: Phosphor-BTK(Y223) assay, adherent cells; conditions: Mus musculus, NIH3T3, phosphorylated BTK Y223, NIH/3T3 BTK WT cells; read-out: NIH/3T3 BTK-WT pBTK
In short: as §1

Row | IC50 (Ramos cells with BTK WT; Ramos) [nM] | SMILES | IC50 (NIH/3T3 BTK C481S cells) [nM] | IC50 (NIH/3T3 BTK WT cells) [nM] | IC50 (Ramos cells with BTK WT) [nM]
1 | ≤ 5 | COc1ccc(F)cc1C(=O)NCc1ccc(-c2ncc(-c3cnn4cccnc34)c3[nH]nc(N)c23)cc1 [Example 70, N-(4-(3-amino-7-(pyrazolo[1,5-a]pyrimidin-3-yl)-1H-pyrazolo[4,3-c]pyridin-4-yl)benzyl)-5-fluoro-2-methoxybenzamide] | ≤ 5 | ≤ 5 | 
2 | ≤ 5 | COc1ccc(F)cc1C(=O)NCc1ccc(-c2ncc(-c3cc4n(n3)CCN(C)C4)c3[nH]nc(N)c23)cc1 [Example 71, N-(4-(3-amino-7-(5-methyl-4,5,6,7-tetrahydropyrazolo[1,5-a]pyrazin-2-yl)-1H-pyrazolo[4,3-c]pyridin-4-yl)benzyl)-5-fluoro-2-methoxybenzamide] | ≤ 5 | ≤ 5 | 
3 | ≤ 5 | CCN1CCn2nc(-c3cnc(-c4ccc(CNC(=O)c5cc(F)ccc5OC)cc4)c4c(N)n[nH]c34)cc2C1 [Example 72, N-(4-(3-amino-7-(5-ethyl-4,5,6,7-tetrahydropyrazolo[1,5-a]pyrazin-2-yl)-1H-pyrazolo[4,3-c]pyridin-4-yl)benzyl)-5-fluoro-2-methoxybenzamide] | ≤ 5 | ≤ 5 | 
4 | ≤ 5 | COc1ccc(F)cc1C(=O)NCc1ccc(-c2ncc(-c3ccc(N4CCN(C)CC4)cn3)c3[nH]nc(N)c23)cc1 [Example 73, N-(4-(3-amino-7-(5-(4-methylpiperazin-1-yl)pyridin-2-yl)-1H-pyrazolo[4,3-c]pyridin-4-yl)benzyl)-5-fluoro-2-methoxybenzamide] | ≤ 5 | ≤ 5 | 
5 | ≤ 5 | COc1ccc(F)cc1C(=O)NCc1ccc(-c2ncc(-c3ccc(N4CCN(C)C[C@@H]4C)cn3)c3[nH]nc(N)c23)cc1 [Example 74, (S)-N-(-4-(3-amino-7-(5-(2,4-dimethylpiperazin-1-yl)pyridin-2-yl) 1H-pyrazolo[4,3-c]pyridin-4-yl)benzyl)-5-fluoro-2-methoxybenzamide] | ≤ 5 | ≤ 5 | 
6 | ≤ 5 | COc1ccc(F)cc1C(=O)NCc1ccc(-c2ncc(-c3ccc(N4CCN(C)C[C@H]4C)cn3)c3[nH]nc(N)c23)cc1 [Example 75, (R)-N-(-4-(3-amino-7-(5-(2,4-dimethylpiperazin-1-yl)pyridin-2-yl) 1H-pyrazolo[4,3-c]pyridin-4-yl)benzyl)-5-fluoro-2-methoxybenzamide] | ≤ 5 | ≤ 5 | 
7 | ≤ 5 | COc1ccc(F)cc1C(=O)NCc1ccc(-c2ncc(-c3ccc(N4CCOCC4)cn3)c3[nH]nc(N)c23)cc1 [Example 76, N-(4-(3-amino-7-(5-morpholinopyridin-2-yl)-1H-pyrazolo[4,3-c]pyridin-4-yl)benzyl)-5-fluoro-2-methoxybenzamide] | ≤ 5 | ≤ 5 | 
8 | ≤ 5 | COc1ccc(F)cc1C(=O)NCc1ccc(-c2ncc(-c3nccn4cccc34)c3[nH]nc(N)c23)cc1 [Example 77, N-(4-(3-amino-7-(pyrrolo[1,2-a]pyrazin-1-yl)-1H-pyrazolo[4,3-c]pyridin-4-yl)benzyl)-5-fluoro-2-methoxybenzamide] | ≤ 5 | ≤ 5 | 
9 | ≤ 5 | COc1ccc(F)cc1C(=O)NCc1ccc(-c2ncc(-c3cc4cnccn4n3)c3[nH]nc(N)c23)cc1 [Example 78, N-(4-(3-amino-7-(pyrazolo[1,5-a]pyrazin-2-yl)-1H-pyrazolo[4,3-c]pyridin-4-yl)benzyl)-5-fluoro-2-methoxybenzamide] | ≤ 5 | ≤ 5 | 
10 |  | COc1ccc(F)cc1C(=O)NCc1ccc(-c2ncc(-c3ccc(NC(=O)C4CC4)cn3)c3[nH]nc(N)c23)cc1 [Example 79, N-(4-(3-amino-7-(5-(cyclopropaneformamido)pyridin-2-yl)-1H-pyrazolo[4,3-c]pyridin-4-yl)benzyl)-5-fluoro-2-methoxybenzamide] | 10 to 50 | 5 to 10 | 5 to 10
11 |  | COc1ccc(F)cc1C(=O)NCc1ccc(-c2ncc(-c3cc(NC(=O)C4CC4)ccn3)c3[nH]nc(N)c23)cc1 [Example 80, N-(4-(3-amino-7-(4-(cyclopropaneformamido)pyridin-2-yl)-1H-pyrazolo[4,3-c]pyridin-4-yl)benzyl)-5-fluoro-2-methoxybenzamide] | 5 to 10 | 5 to 10 | ≤ 5
12 | 10 to 50 | COc1ccc(F)cc1C(=O)NCc1ccc(-c2ncc(-c3ccc(F)cn3)c3[nH]nc(N)c23)c(F)c1 [Example 82, N-(4-(3-amino-7-(5-fluoropyridin-2-yl)-1H-pyrazolo[4,3-c]pyridin-4-yl)-3-fluorobenzyl)-5-fluoro-2-methoxybenzamide] | ≤ 5 | ≤ 5 | 
13 | 5 to 10 | COc1ccc(F)cc1C(=O)NCc1ccc(-c2nc(C)c(-c3ncccn3)c3[nH]nc(N)c23)cc1 [Example 84, N-(4-(3-amino-6-methyl-7-(pyrimidin-2-yl)-1H-pyrazolo[4,3-c]pyridin-4-yl)benzyl)-5-fluoro-2-methoxybenzamide] | 10 to 50 | 5 to 10 | 
14 | ≤ 5 | COc1ccc(F)cc1C(=O)NCc1ccc(-c2nc(C(F)F)c(-c3ncccn3)c3[nH]nc(N)c23)cc1 [Example 85, N-(4-(3-amino-6-(difluoromethyl)-7-(pyrimidin-2-yl)-1H-pyrazolo[4,3-c]pyridin-4-yl)benzyl)-5-fluoro-2-methoxybenzamide] | 5 to 10 | ≤ 5 | 
15 | 5 to 10 | COc1ccc(F)cc1C(=O)NCc1ccc(-c2nc(C3CCSCC3)cc3[nH]nc(N)c23)cc1 [Example 91, N-(4-(3-amino-6-(tetrahydro-2H-thiopyran-4-yl)-1H-pyrazolo[4,3-c]pyridin-4-yl)benzyl)-5-fluoro-2-methoxybenzamide] | 5 to 10 | ≤ 5 | 
16 | ≤ 5 | C=CC(=O)N1CCCC(c2cc3[nH]nc(N)c3c(-c3ccc(CNC(=O)c4cc(F)ccc4OC)cc3)n2)C1 (stereo not drawn) [Example 96, N-(4-(6-(1-acryloylpiperidin-3-yl)-3-amino-1H-pyrazolo[4,3-c]pyridin-4-yl)benzyl)-5-fluoro-2-methoxybenzamide] | > 50 | 10 to 50 | 
17 | ≤ 5 | COc1ccc(F)cc1C(=O)NCc1ccc(-c2ncc(-c3nccn4nccc34)c3[nH]nc(N)c23)cc1 [Example 98, N-(4-(3-amino-7-(pyrazolo[1,5-a]pyrazin-4-yl)-1H-pyrazolo[4,3-c]pyridin-4-yl)benzyl)-5-fluoro-2-methoxybenzamide] | ≤ 5 | ≤ 5 | 
18 | ≤ 5 | COc1ccc(F)cc1C(=O)NCc1ccc(-c2ncc(-c3nc4ccccc4s3)c3[nH]nc(N)c23)cc1 [Example 99, N-(4-(3-amino-7-(benzo[d]thiazol-2-yl)-1H-pyrazolo[4,3-c]pyridin-4-yl)benzyl)-5-fluoro-2-methoxybenzamide] | 5 to 10 | ≤ 5 | 
19 | ≤ 5 | COc1ccc(F)cc1C(=O)NCc1ccc(-c2ncc(-c3nc4cccnc4s3)c3[nH]nc(N)c23)cc1 [Example 100, N-(4-(3-amino-7-(thiazolo[5,4-b]pyridin-2-yl)-1H-pyrazolo[4,3-c]pyridin-4-yl)benzyl)-5-fluoro-2-methoxybenzamide] | 5 to 10 | ≤ 5 | 
20 | ≤ 5 | CCN1CCc2nc(-c3cnc(-c4ccc(CNC(=O)c5cc(F)ccc5OC)cc4)c4c(N)n[nH]c34)sc2C1 [Example 101, N-(4-(3-amino-7-(5-ethyl-4,5,6,7-tetrahydrothiazolo[5,4-c]pyridin-2-yl)-1H-pyrazolo[4,3-c]pyridin-4-yl)benzyl)-5-fluoro-2-methoxybenzamide] | ≤ 5 | ≤ 5 | 
21 | 10 to 50 | COc1ccc(F)cc1C(=O)NCc1ccc(-c2ncc(-c3ccc4c(n3)nc3n4CCOC3)c3[nH]nc(N)c23)cc1 [Example 102, N-(4-(3-amino-7-(6,7-dihydro-9H-pyrido[2',3':4,5]imidazo[2,1-c][1,4]oxazin-2-yl)-1H-pyrazolo[4,3-c]pyridin-4-yl)benzyl)-5-fluoro-2-methoxybenzamide] | 10 to 50 | 10 to 50 | 
22 | 10 to 50 | COc1ccc(F)cc1C(=O)NCc1ccc(-c2ncc(-c3ccc4c(n3)nc3n4C(C)COC3)c3[nH]nc(N)c23)cc1 (stereo not drawn) [Example 103, N-(4-(3-amino-7-(6-methyl-6,7-dihydro-9H-pyrido[2',3':4,5]imidazo[2,1-c][1,4]oxazin-2-yl)-1H-pyrazolo[4,3-c]pyridin-4-yl)benzyl)-5-fluoro-2-methoxybenzamide] | 10 to 50 | 5 to 10 | 
23 | > 50 | COc1ccc(F)cc1C(=O)NCc1ccc(-c2ncc(-c3cccnc3)c3[nH]nc(N)c23)cc1 [Example 105, N-(4-(3-amino-7-(pyridin-3-yl)-1H-pyrazolo[4,3-c]pyridin-4-yl)benzyl)-5-fluoro-2-methoxybenzamide] | > 50 | > 50 | 
24 | > 50 | COc1ccc(F)cc1C(=O)NCc1ccc(-c2ncc(-c3ccncc3)c3[nH]nc(N)c23)cc1 [Example 106, N-(4-(3-amino-7-(pyridin-4-yl)-1H-pyrazolo[4,3-c]pyridin-4-yl)benzyl)-5-fluoro-2-methoxybenzamide] | > 50 | > 50 | 
